According to US20120029187A1, “HALOALKYLSULFONANILIDE DERIVATIVE” (Nissan Chemical Industries, Ltd., priority 2009, published 2012):

Legend:
Format in all cases: in vivo
transplanted rice = assay: Test Example 1: preemergence treatment under submerged conditions, effect on crop; details: dose 2.52 g/a
Method in brief: (§1)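 Alluvial soil flooded to 4 cm depth; barnyardgrass, bulrush and ducksalad sown and 2.5-leaf rice seedlings transplanted. Same day, water-diluted emulsifiable concentrates applied to the water surface at set doses (g/a). Kept at 25–30 °C in greenhouse; effects scored 0–5 by mortality after three weeks.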

bulrush [1] = assay: Test Example 2: herbicidal effects during the vegetation period under submerged conditions; details: treatment during the vegetation period under submerged conditions; dose 2.52 g/a
Method in brief: (§2)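 Barnyardgrass, bulrush and ducksalad were co-sown in alluvial soil flooded to 4 cm and grown in a greenhouse at 25 to 30° C. At the 1- or 2-leaf stage, water-diluted emulsifiable concentrates went onto the water surface at set doses (g/a). Herbicidal effect was scored three weeks later on a graded scale.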

ducksalad [2] = assay: as above; details: treatment during the vegetation period under submerged conditions; dose 2.52 g/a
Method in brief: as §2

barnyardgrass [3] = assay: as above; details: treatment during the vegetation period under submerged conditions; dose 2.52 g/a
Method in brief: as §2

velvetleaf [4] = assay: Test Example 3: herbicidal effects in soil treatment; details: dose 3.2 g/a
Method in brief: (§3)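 Seeds were sown in sterilized diluvial soil and covered with about 1.5 cm of soil. Compounds, formulated as emulsifiable concentrates and diluted with water, were sprayed evenly over the soil surface at set doses in g/a. Herbicidal effect was scored on a rating scale three weeks later.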

common chickweed [5] = assay: as above; details: dose 3.2 g/a
Method in brief: as §3

common lambsquater [6] = assay: as above; details: dose 3.2 g/a
Method in brief: as §3

giant foxtail [7] = assay: as above; details: dose 3.2 g/a
Method in brief: as §3

wild oat [8] = assay: as above; details: dose 3.2 g/a
Method in brief: as §3

large crabgrass [9] = assay: as above; details: dose 3.2 g/a
Method in brief: as §3

water foxtail [10] = assay: as above; details: dose 3.2 g/a
Method in brief: as §3

beadstraw [11] = assay: as above; details: dose 3.2 g/a
Method in brief: as §3

Italian ryegrass [12] = assay: as above; details: dose 3.2 g/a
Method in brief: as §3

common ragweed [13] = assay: as above; details: dose 3.2 g/a
Method in brief: as §3

redroot pigweed [14] = assay: as above; details: dose 3.2 g/a
Method in brief: as §3

posumbu knotweed [15] = assay: as above; details: dose 3.2 g/a
Method in brief: as §3

barnyardgrass [16] = assay: as above; details: dose 3.2 g/a
Method in brief: as §3

velvetleaf [17] = assay: Test Example 4: herbicidal effect in foliage treatment; details: dose 3.2 g/a, three weeks after the application
Method in brief: (§4)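 Seeds were spot-sown in boxes of sterilized diluvial soil and raised in a greenhouse (25 to 30° C) for 14 days before a single foliar application. Compounds were applied as emulsifiable concentrates diluted with water, at predetermined doses in g/a. Injury was graded three weeks post-spray.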

common chickweed [18] = assay: as above; details: dose 3.2 g/a, three weeks after the application
Method in brief: as §4

common lambsquater [19] = assay: as above; details: dose 3.2 g/a, three weeks after the application
Method in brief: as §4

giant foxtail [20] = assay: as above; details: dose 3.2 g/a, three weeks after the application
Method in brief: as §4

wild oat [21] = assay: as above; details: dose 3.2 g/a, three weeks after the application
Method in brief: as §4

large crabgrass [22] = assay: as above; details: dose 3.2 g/a, three weeks after the application
Method in brief: as §4

water foxtail [23] = assay: as above; details: dose 3.2 g/a, three weeks after the application
Method in brief: as §4

beadstraw [24] = assay: as above; details: dose 3.2 g/a, three weeks after the application
Method in brief: as §4

Italian ryegrass [25] = assay: as above; details: dose 3.2 g/a, three weeks after the application
Method in brief: as §4

common ragweed [26] = assay: as above; details: dose 3.2 g/a, three weeks after the application
Method in brief: as §4

redroot pigweed [27] = assay: as above; details: dose 3.2 g/a, three weeks after the application
Method in brief: as §4

posumbu knotweed [28] = assay: as above; details: dose 3.2 g/a, three weeks after the application
Method in brief: as §4

barnyardgrass [29] = assay: as above; details: dose 3.2 g/a, three weeks after the application
Method in brief: as §4

bulrush [30] = assay: Test Example 1: herbicidal effects in preemergence treatment under submerged conditions; details: dose 2.52 g/a
Method in brief: as §1

ducksalad [31] = assay: as above; details: dose 2.52 g/a
Method in brief: as §1

barnyardgrass [32] = assay: as above; details: dose 2.52 g/a
Method in brief: as §1

barnyardgrass [33] = assay: Comparative Example 1: herbicidal effects in preemergence treatment on barnyardgrass under submerged conditions; details: applied to water surface on the day of seeding, three weeks after application
From the text: Comparative Example 1 Test on the Herbicidal Effects in Preemergence Treatment on Barnyardgrass Under Submerged Conditions Alluvial soil was put in 1/30000-are styrol cups and admixed with water so that it was submerged at a depth of 4 cm. In each cup, seeds of barnyardgrass were sown, and on the same day as the seeding, emulsifiable concentrates containing compounds of the present invention formulated in accordance with Formulation Example 2 were applied to the water surfaces at predetermined doses after diluted with water. The cups were placed in a greenhouse at 25 to 30° C. to grow the plants. Three weeks after the application, the herbicidal effects against barnyardgrass were determined on the following evaluation scale. The symbol A in the table means barnyardgrass.

barnyardgrass [34] = assay: Comparative Example 2: herbicidal effects on barnyardgrass during the vegetation period under submerged conditions; details: applied to water surface at the 2- or 2.5-leaf stage, three weeks after application
Protocol: Comparative Example 2 Test on the Herbicidal Effects on Barnyardgrass During the Vegetation Period Under Submerged Conditions Alluvial soil was put in 1/30000-are styrol cups and admixed with water so that it was submerged at a depth of 4 cm. In each cup, seeds of barnyardgrass were sown, and the cups were placed in a greenhouse at 25 to 30° C. to grow the plants. When the barnyardgrass reached the 2- or 2.5-leaf stage, emulsifiable concentrates containing compounds of the present invention and the comparative compounds formulated in accordance with Formulation Example 2 were applied to the water surfaces at predetermined doses after diluted with water. Three weeks after the application, the herbicidal effects were determined on the same evaluation scale as in Test Example 1. The symbol A in the table is the same as defined above.

In the case of `CCOC(=O)N(c1ccccc1CN1COCN(CC)C1=O)S(=O)(=O)C(F)(F)F` [IV-6], the “a: transplanted rice, effect on crop (evaluation scale 0-5)” value (transplanted rice) is reported as 0 (mortality of less than 5% (almost ineffective)), the “B: bulrush, herbicidal effect (evaluation scale 0-5)” value (bulrush [1]) is reported as 5 (mortality of 90% or above (nearly complete death)) and the “C: ducksalad, herbicidal effect (evaluation scale 0-5)” value (ducksalad [2]) is reported as 5 (mortality of 90% or above (nearly complete death)). The “A: barnyardgrass, herbicidal effect (evaluation scale 0-5)” value (barnyardgrass [3]) was 5 (mortality of 90% or above (nearly complete death)), the “herbicidal effect, I: velvetleaf” value (velvetleaf [4]) was 5 (mortality of 90% or above (nearly complete death)) and the “herbicidal effect, N: common chickweed” value (common chickweed [5]) was 4 (mortality of at least 70% and less than 90%). The “herbicidal effect, L: common lambsquater” value (common lambsquater [6]) was 0 (mortality of less than 5% (almost ineffective)), the “herbicidal effect, E: giant foxtail” value (giant foxtail [7]) was 5 (mortality of 90% or above (nearly complete death)) and the “herbicidal effect, F: wild oat” value (wild oat [8]) was 0 (mortality of less than 5% (almost ineffective)). The “herbicidal effect, D: large crabgrass” value (large crabgrass [9]) was 5 (mortality of 90% or above (nearly complete death)), the “herbicidal effect, G: water foxtail” value (water foxtail [10]) was 5 (mortality of 90% or above (nearly complete death)) and the “herbicidal effect, O: beadstraw” value (beadstraw [11]) was 4 (mortality of at least 70% and less than 90%). For the same molecule, the “herbicidal effect, H: Italian ryegrass” value (Italian ryegrass [12]) was 0 (mortality of less than 5% (almost ineffective)), the “herbicidal effect, J: common ragweed” value (common ragweed [13]) was 0 (mortality of less than 5% (almost ineffective)) and the “herbicidal effect, K: redroot pigweed” value (redroot pigweed [14]) was 1 (mortality of at least 5% and less than 20%). The “herbicidal effect, M: posumbu knotweed” value (posumbu knotweed [15]) was 0 (mortality of less than 5% (almost ineffective)), the “herbicidal effect, A: barnyardgrass” value (barnyardgrass [16]) was 5 (mortality of 90% or above (nearly complete death)) and the “I: velvetleaf, herbicidal effect” value (velvetleaf [17]) was 5 (mortality of 90% or above (nearly complete death)). The “N: common chickweed, herbicidal effect” value (common chickweed [18]) was 4 (mortality of at least 70% and less than 90%), the “L: common lambsquater, herbicidal effect” value (common lambsquater [19]) was 3 (mortality of at least 40% and less than 70%) and the “E: giant foxtail, herbicidal effect” value (giant foxtail [20]) was 4 (mortality of at least 70% and less than 90%). The “F: wild oat, herbicidal effect” value (wild oat [21]) was 0 (mortality of less than 5% (almost ineffective)), the “D: large crabgrass, herbicidal effect” value (large crabgrass [22]) was 4 (mortality of at least 70% and less than 90%) and the “G: water foxtail, herbicidal effect” value (water foxtail [23]) was 5 (mortality of 90% or above (nearly complete death)). For the same molecule, the “O: beadstraw, herbicidal effect” value (beadstraw [24]) was 4 (mortality of at least 70% and less than 90%), the “H: Italian ryegrass, herbicidal effect” value (Italian ryegrass [25]) was 2 (mortality of at least 20% and less than 40%) and the “J: common ragweed, herbicidal effect” value (common ragweed [26]) was 3 (mortality of at least 40% and less than 70%). For the same molecule, the “K: redroot pigweed, herbicidal effect” value (redroot pigweed [27]) was 0 (mortality of less than 5% (almost ineffective)), the “M: posumbu knotweed, herbicidal effect” value (posumbu knotweed [28]) was 0 (mortality of less than 5% (almost ineffective)) and the “A: barnyardgrass, herbicidal effect” value (barnyardgrass [29]) was 4 (mortality of at least 70% and less than 90%). The “B: bulrush, herbicidal effect (evaluation scale 0-5)” value (bulrush [30]) was 5 (mortality of 90% or above (nearly complete death)), the “C: ducksalad, herbicidal effect (evaluation scale 0-5)” value (ducksalad [31]) was 5 (mortality of 90% or above (nearly complete death)) and the “A: barnyardgrass, herbicidal effect (evaluation scale 0-5)” value (barnyardgrass [32]) was 5 (mortality of 90% or above (nearly complete death)).

In the case of `CC(C)COC(O)N(c1ccccc1CN1CCCOC1=O)S(=O)(=O)C(F)(F)F` (stereo not drawn) [a, reference compound], the “herbicidal effect, A (barnyardgrass)” value (barnyardgrass [33]; dose 0.16 g/a) is reported as 0 (mortality of less than 5% (almost ineffective)), the “herbicidal effect, A (barnyardgrass)” value (barnyardgrass [33]; dose 0.64 g/a) is reported as 5 (mortality of 90% or above (nearly complete death)) and the “herbicidal effect, A (barnyardgrass)” value (barnyardgrass [33]; dose 2.52 g/a) is reported as 5 (mortality of 90% or above (nearly complete death)). For the same molecule, the “herbicidal effect, A (barnyardgrass)” value (barnyardgrass [34]; dose 0.16 g/a) was 0 (mortality of less than 5% (almost ineffective)), the “herbicidal effect, A (barnyardgrass)” value (barnyardgrass [34]; dose 0.64 g/a) was 0 (mortality of less than 5% (almost ineffective)) and the “herbicidal effect, A (barnyardgrass)” value (barnyardgrass [34]; dose 2.52 g/a) was 5 (mortality of 90% or above (nearly complete death)).
